“Also recorded” adds a separate entry of the source.
Tests used:
[1] = tested on: enteroid-derived monolayers (EDMs); assay: Tight junction integrity by occludin / pS245GIV staining in EDMs challenged with E. coli (FIG. 4C); type: cell-based, mouse and human; conditions: Metformin pre-treatment 1 μM, 18 h; E. coli K12 8 h
Method: (§1) In FIG. 4B, TEER was measured across EDMs that were pre-treated or not with Metformin (1 μM, 18 h) prior to challenge with E. coli K12 strain for 8 h. Drop in TEER (Y axis) is plotted. A representative experiment is shown. […] Activation of the AMPK→GIV stress polarity axis was monitored using pS245GIV (red). […] Arrowheads=separation of TJs and loss of pS245GIV.
(§2) Detailed Methods: Isolation of enteroids and generation of enteroid-derived monolayers (EDM): Crypts are isolated from human colonic biopsies by digesting tissue with Collagenase type I (2 mg/ml; Invitrogen), filtered with a cell strainer and washed with medium (DMEM/F12 with HEPES, 10% FBS), as outlined before. The epithelial units are suspended in […] (BD basement membrane matrix). Cell-[…] suspension (15 μl) are placed at the center of the 24-well plate on ice and placed on the incubator upside-down for polymerization (as shown in FIG. 4A). After 10 min, 500 μl of 50% conditioned media (prepared from L-WRN cells with Wnt3a, R-spondin and Noggin) containing 10 μM Y27632 (ROCK inhibitor) and 10 μM SB431542 (an inhibitor for TGF-β type I receptor) is added to the suspension. The medium is changed every 2 days and the enteroids are expanded and frozen in liquid nitrogen. To prepare EDMs, single cells from enteroids in 5% conditioned media are added to diluted […] (1:30) as done before. […]

high-fat fed mice = conditions: cited from earlier work
CLDN2 = CLDN2 biomarker in response to IBD-associated microbes (FIG. 15); type: cell-based
[2] = tested on: enteroid-derived monolayers (EDMs); assay: TEER across enteroid-derived monolayers challenged with E. coli K12 (FIG. 4B); type: cell-based, mouse and human; conditions: Metformin pre-treatment 1 μM, 18 h; E. coli K12 challenge 8 h
Method: as §1, §2

[3] = tested on: Mouse intestine-derived EDMs; assay: Tight junction integrity by occludin / pS245GIV staining in EDMs exposed to LPS or H2O2 (FIG. 5); type: cell-based; conditions: 1 μM Metformin
Method: Mouse intestine-derived EDMs were exposed to indicated amounts of LPS (top) or H2O2 (bottom) after treating them or not with 1 μM Metformin. Fixed monolayers were assessed for TJs by staining for occludin (a TJ marker; green grey scales). Activation of the AMPK→GIV stress polarity axis was monitored using pS245GIV (red grey scales). […] TEER measurements agree with IF findings (not shown).

AMPK→pS245GIV axis = assay: Activity of the AMPK→pS245GIV axis in human EDMs from non-diseased aged colons; type: cell-based
AMPK α1β1γ1 = AMPK α1β1γ1 (Homo sapiens, UniProt Q13131+Q9Y478); assay: AMPK activation by A769662, α1β1γ1 isoform (fold activation, FIG. 18); type: biochemical; conditions: estimated
Sequence of AMPK α1β1γ1 (Q13131 whole entry, canonical isoform): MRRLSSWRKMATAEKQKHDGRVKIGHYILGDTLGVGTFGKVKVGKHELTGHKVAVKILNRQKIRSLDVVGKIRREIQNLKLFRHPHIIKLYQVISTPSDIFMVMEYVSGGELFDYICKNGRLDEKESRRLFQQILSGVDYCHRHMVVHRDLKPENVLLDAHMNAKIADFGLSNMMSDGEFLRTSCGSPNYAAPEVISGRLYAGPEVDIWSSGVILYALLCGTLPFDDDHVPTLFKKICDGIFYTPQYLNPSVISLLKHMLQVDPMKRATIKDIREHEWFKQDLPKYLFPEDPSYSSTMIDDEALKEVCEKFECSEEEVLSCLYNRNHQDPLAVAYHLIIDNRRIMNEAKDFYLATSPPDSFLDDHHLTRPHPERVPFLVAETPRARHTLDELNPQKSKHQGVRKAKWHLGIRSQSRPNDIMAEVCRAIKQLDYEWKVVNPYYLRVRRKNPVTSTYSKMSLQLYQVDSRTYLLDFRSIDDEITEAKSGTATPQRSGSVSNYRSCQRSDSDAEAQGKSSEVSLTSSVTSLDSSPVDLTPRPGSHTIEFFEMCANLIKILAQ
Sequence of AMPK α1β1γ1 (Q9Y478 whole entry, canonical isoform): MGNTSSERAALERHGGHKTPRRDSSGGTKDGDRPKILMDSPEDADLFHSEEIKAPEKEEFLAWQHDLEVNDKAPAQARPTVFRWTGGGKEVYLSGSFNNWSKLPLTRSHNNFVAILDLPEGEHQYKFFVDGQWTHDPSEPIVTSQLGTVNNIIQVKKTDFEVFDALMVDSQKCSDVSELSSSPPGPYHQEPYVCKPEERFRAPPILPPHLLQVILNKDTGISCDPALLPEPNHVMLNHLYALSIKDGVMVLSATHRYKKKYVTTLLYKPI
Sequence of AMPK α1β1γ1 (P54619 whole entry partner, canonical isoform): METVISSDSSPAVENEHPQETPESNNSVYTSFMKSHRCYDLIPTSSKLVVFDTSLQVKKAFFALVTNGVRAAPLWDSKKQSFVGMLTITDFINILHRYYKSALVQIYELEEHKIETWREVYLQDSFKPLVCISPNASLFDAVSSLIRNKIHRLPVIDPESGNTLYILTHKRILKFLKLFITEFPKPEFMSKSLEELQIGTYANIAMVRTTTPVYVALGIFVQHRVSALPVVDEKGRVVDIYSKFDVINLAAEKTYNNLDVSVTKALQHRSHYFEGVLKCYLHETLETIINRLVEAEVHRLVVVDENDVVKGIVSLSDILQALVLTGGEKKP

DSS-induced colitis = DSS-induced colitis (FIGS. 20A-20E); type: in vivo; conditions: activation of AMPK with A769662
[4] = tested on: AMPK 32-subunit-containing isoforms; assay: AMPK activation by A769662, 32-subunit-containing isoforms (FIG. 18); type: biochemical

| AC50 (AMPK α1β1γ1) [nM] | SMILES | TJ preservation (occludin pattern) [1] | endotoxemia (high-fat fed mice) | gut barrier integrity (high-fat fed mice) | insulin signaling (high-fat fed mice) | increase in the CLDN2 biomarker (CLDN2) | Drop in TEER [2] | TJ preservation (occludin pattern) ([3]; H2O2 stress) | TJ preservation (occludin pattern) ([3]; LPS stress) | activity of the AMPK→pS245GIV axis (AMPK→pS245GIV axis) | colon length (DSS-induced colitis) | healing of colonic mucosa (DSS-induced colitis) | AC50 [4] [nM] |
| --- | --- | --- | --- | --- | --- | --- | --- | --- | --- | --- | --- | --- | --- |
| – | CN(C)C(=N)N=C(N)N [Metformin] | TJs were better preserved; also recorded: protects TJs against stress-induced collapse | attenuates endotoxemia | enhances gut barrier integrity | enhances insulin signaling | prevents the increase | significantly reduced the drop in TEER | TJs were better preserved; also recorded: protects TJs against stress-induced collapse | TJs were better preserved; also recorded: protects TJs against stress-induced collapse | can be increased | – | – | – |
| 72.2 | N#Cc1c(O)c2c(-c3ccc(-c4ccccc4O)cc3)csc2[nH]c1=O [A769662] | – | – | – | – | – | – | – | – | – | preserves colon length | heals colonic mucosa | > 40000 |
